These are literature values, as cited in patent publication US20090048261A1, “Pharmaceutical Composition for Treatment of Ocular Hypertension” (priority 2007, published 2009).

Several values for one entry are separate records, joined by “and”; a condition that tells them apart may be missing. Equal entries are not always repeated. Where two headings read alike, the source gives them in different places.

In series [1] the test system is patients with glaucoma or ocular hypertension. The following applies: for difference in effectiveness of brimonidine and dorzolamide: jointly used with topical beta-blockers, Cantor.
The subject of series [2] is carbonic anhydrase isoenzyme. The settings on record: after 4 weeks of bilateral treatment.
The conditions of series [3]: topical.
In series [4] the test system is primary open-angle glaucoma patients. The settings on record: 30 patients.
The subject of series [5] is alpha-2-andrenergic receptors. The following applies: compared with clonidine.

Turning to Brimonidine tartrate, where the note is “topical administration of ophthalmic solution”, the “time of peak ocular antihypertensive effects” value was 2 to 3 h.

In the case of `CCN[C@H]1C[C@H](C)S(=O)(=O)c2sc(S(N)(=O)=O)cc21` [dorzolamide], the “additional reduction of intraocular pressure when added to topical brimonidine” value in series [1] (dorzolamide at 2%, patients with intraocular pressure of at least 22 mm Hg, 30 days, Ermis) is “up to 29%”. In series [1] (human, in vivo), the “reduction of intraocular pressure when added to timolol” value was 20%. Moreover, the “difference in effectiveness of brimonidine and dorzolamide” value in series [1] was “no statistically significant differences”. The “decrease of carbonic anhydrase isoenzyme's activity, of its basic activity” value in series [2] was 21%. Further, in the series with plasma proteins, the “binding to plasma proteins” value was ~33%.

On to `CC(C)(C)NC[C@H](O)COc1nsnc1N1CCOCC1` [timolol], for which the “time over which ocular antihypertensive effect is maintained” value (chronic use) was “up to three years”. In addition, where the note is “one drop of timolol at 0.5%”, the duration of effect entry was “over 24 hours”, the “start of the drug's action” value is recorded as “after an hour” and the “time of peak effect” value was 2 h. Moreover, where the note is “one drop, topical ocular instillation”, the “start of the drug's action” value is listed as “within a single hour”. Under “single dose”, the “duration of significant reduction of intraocular pressure” value is given as “up to 24 hours”. Further, in series [3], the “effect over pupil size or accommodation” value is on record as “little or no effect”; the “systemic effects after absorption” value was “decrease in heart rate, cardiac arrhythmia and bronchial spasm”.

On to `CC(C)OC(=O)CCC/C=C\C[C@@H]1[C@@H](CC[C@@H](O)CCc2ccccc2)[C@H](O)C[C@@H]1O` [latanoprost], for which, in series [4], the increase in pulsating ocular blood flow was 2.15 µL/s and the “reduction of intraocular pressure” value is 3.75 mmHg.

Turning to `Brc1c(NC2=NCCN2)ccc2nccnc12` [brimonidine], the “effectiveness in reducing ocular hypertension, brimonidine at 0.2% versus dorzolamide at 2%” value in series [1] (joint therapy with topical beta-blockers, adults with ocular hypertension, Simmons) is “more effective”. The “additive effect of intraocular pressure reduction” value in series [1] (joint treatment to topical beta-blocker therapy) is 5 mmhg and 3.7 mmhg. Besides, in series [1], the “difference in effectiveness of brimonidine and dorzolamide” value is on record as “no statistically significant differences”. Moreover, the “selectivity to alpha-2 adrenergic receptors” value in series [5] is reported as “higher selectivity”.
